The test system of assay [1] is adjuvant-induced arthritis (paw volume, uninjected left hind paw). The experiment in a line: Established adjuvant-induced arthritis in rats. In kind it is in vivo, rat (male Charles River Lewis). Particulars: for ED50: Rattus norvegicus, read-out: Adjuvant Arthritis ED50; for Adjuvant Arthritis, percent reduction in paw volume at the indicated dose: at 27 mg/kg.
In assay [2] the test system is phenylquinone-induced writhing. As to the kind of experiment: Phenylquinone writhing test. In kind it is in vivo, mouse (female white). Particulars: Mus musculus, read-out: Phenylquinone Writhing (PQW) ED50. As to the method:
PHENYLQUINONE WRITHING TEST
A standard procedure for detecting and comparing the analgesic activity of compounds in this series for which there is a good correlation with human efficacy is the standard phenylquinone writhing test modified from Siegmund, et al., Proc. Soc. Exp. Biol. Med., 95, 729 (1957). A test compound suspended in 1% methylcellulose was given orally to fasted (17-21 hours) female white mice, 5-20 animals per double blind test. Aqueous (0.01% phenyl-p-benzoquinone) phenylquinone, 0.20 ml per mouse, was injected intraperitoneally 6 minutes before observations were begun. […] The effective analgesic dose for 50% of the mice (ED50) was calculated by the moving average method of Thompson, W. R., Bact. Rev., 11, 115-145 (1947); the time of peak activity was determined for many of the compounds. Data for some of the compounds are summarized in Table II together with data for some standard analgetic-antiinflammatory drugs.
A general note: An intraperitoneal irritant provokes the stretching counted in writhing tests.

Where [3] appears, read: oral, 7 daily doses, rats, effective dose for 50% decrease from control paw volume, read from dose-response line by inspection.
Setting [4] is: oral, mice, effective analgesic dose for 50% of the mice, moving average method.

Where two headings read alike, the source gives them in different places.

What is called ED50 is the dose that gives a 50% effect, or the effect in half of the subjects. `CC(=O)Oc1ccccc1C(=O)O` [Aspirin, reference compound]: the figures for the ED50 in assay [1] (po) and in assay [2] (po) were 305 mg/kg and 135 mg/kg, respectively.
On to `C[Si](C)(C)c1cc(-c2ccc(F)cc2)c(-c2ccc(F)cc2)o1` [Example 1, 4,5-bis(4-Fluorophenyl)-2-trimethylsilylfuran], for which, in assay [1] (oral, 7 daily doses, rats), the “Adjuvant Arthritis, percent reduction in paw volume at the indicated dose” value (“Adjuvant Arthritis, percent reduction” for short) is given as 32%. Also, in assay [2] (po), the ED50 amounted to 39 mg/kg.
As to `COc1ccc(-c2cc([Si](C)(C)C)oc2-c2ccc(OC)cc2)cc1` [Example 2, 4,5-bis(4-Methoxyphenyl)-2-trimethylsilylfuran], the ED50 in assay [1] (po) turned out to be 2.5 mg/kg; in assay [2] (po), 2.3 mg/kg.
Consider `C[Si](C)(C)c1cc(-c2ccccc2)c(-c2ccccc2)o1` [Example 3, 4,5-Diphenyl-2-trimethylsilylfuran], for which the “Adjuvant Arthritis, percent reduction” value in assay [1] (oral, 7 daily doses, rats) was found to be 24%. Further, in assay [2] (po), the median effective dose (ED50) turned out to be 94 mg/kg.
As for `CSc1ccc(-c2cc([Si](C)(C)C)oc2-c2ccc(F)cc2)cc1` [Example 4, 5-(4-Fluorophenyl)-4-(4-methylthiophenyl)-2-trimethylsilylfuran], the ED50 is over 27 mg/kg in assay [1] (po) and over 135 mg/kg in assay [2] (po).
Take `Cc1ccc(-c2cc([Si](C)(C)C)oc2-c2ccc(Cl)cc2)cc1` [Example 5, 5-(4-Chlorophenyl)-4-(4-methylphenyl)-2-trimethylsilylfuran]: the “Adjuvant Arthritis, percent reduction” value in assay [1] (oral, 7 daily doses, rats) is reported as 15%. Moreover, in assay [2] (po), the ED50 is over 135 mg/kg.
With `CC(C)Cc1ccc(C(C)C(=O)O)cc1` (stereo not drawn) [Ibuprofen, reference compound], the 50% effective dose (ED50) is 100 mg/kg in assay [1] (setting [3]) and 10 mg/kg in assay [2] (setting [4]).
Regarding `COc1ccc2c(c1)c(CC(=O)O)c(C)n2C(=O)c1ccc(Cl)cc1` [Indomethacin, reference compound], the median effective dose (ED50) in assay [1] (po) is 0.3 mg/kg; in assay [2] (po), 0.35 mg/kg.
On to `CCCCC1C(=O)N(c2ccccc2)N(c2ccccc2)C1=O` [Phenylbutazone, reference compound], for which the ED50 came out at 10 mg/kg in assay [1] (setting [3]) and 80 mg/kg in assay [2] (setting [4]).

(Values after patent publication US4500520A, “Antiinflammatory and/or analgesic silylfurans” (E. I. Du Pont de Nemours and Company, priority 1983, dated 1985).)
